Experimental data: US20240116985A1, “STAPLED PEPTIDES AND METHODS THEREOF” (priority 2020, published 2024)
In brackets after ≈: the same amount, converted by molar mass.

Assay: Solubility in PBS
Type: physicochemical
Conditions: for solubility at 15 min: Solubility (uM)
Method: After ultracentrifugation of the PBS solution, the supernatant was analyzed by HPLC and compared to an HPLC injection 50 μM peptide DMSO solution. Solubility was determined by: [(Area of PBS peak)/(Area of DMSO peak)]*50 uM.

## CC(=O)N1CCC[C@]12CC=CCCCC1(CCCC=CCCCOC(=O)N3CC[C@@](C(=O)N[C@@H](Cc4ccccc4)C(=O)N[C@@H](Cc4csc5ccccc45)C(=O)N[C@@H](CCC(N)=O)C(N)=O)(C3)NC(=O)[C@H](CC(C)C)NC(=O)[C@H](Cc3ccccc3)NC(=O)[C@H](C)NC(=O)[C@H](C)NC(=O)[C@H]([C@@H](C)O)NC(=O)[C@H](CC(=O)O)NC1=O)NC(=O)[C@H](CC(C)(C)C)NC(=O)[C@H](CC(N)=O)NC2=O (single isomer, unassigned) [I-1284, Ac-PL3-Asn-Npg-B5-Asp-Thr-Ala-Ala-Phe-Leu-PyrS2-Phe-BztA-Gln-NH2]
  Solubility: 10 µM (≈ 19 µg/mL)

## CC(=O)N1CCC[C@]12CC=CCCCC1(CCCC=CCCCOC(=O)N3CC[C@@](C(=O)N[C@@H](Cc4ccccc4)C(=O)N[C@@H](Cc4csc5ccccc45)C(=O)N[C@@H](CCC(N)=O)C(N)=O)(C3)NC(=O)[C@H](CC(C)C)NC(=O)[C@H](Cc3ccccc3)NC(=O)[C@H](C)NC(=O)[C@H](C)NC(=O)[C@H]([C@@H](C)O)NC(=O)[C@H](CC(N)=O)NC1=O)NC(=O)[C@H](CC(C)(C)C)NC(=O)[C@H](CC(=O)O)NC2=O (stereo partly drawn) [I-1294, Ac-PL3-Asp-Npg-B5-Asn-Thr-Ala-Ala-Phe-Leu-PyrS2-Phe-BztA-Gln-NH2]
  Solubility: 10 µM (≈ 19 µg/mL)

## CC(=O)N1CCC[C@]12CC=CCCCC1(CCCC=CCCCOC(=O)N3CC[C@@](C(=O)N[C@@H](Cc4ccccc4)C(=O)N[C@@H](Cc4ccc5ccccc5c4)C(=O)N[C@@H](CCC(N)=O)C(N)=O)(C3)NC(=O)[C@H](CC(C)C)NC(=O)[C@H](Cc3ccccc3)NC(=O)[C@H](C)NC(=O)[C@H](CCCCNC(C)C)NC(=O)[C@H]([C@@H](C)O)NC(=O)[C@H](CC(N)=O)NC1=O)NC(=O)[C@H](C)NC(=O)[C@H](CC(=O)O)NC2=O (stereo partly drawn) [I-1381, Ac-PL3-Asp-Ala-B5-Asn-Thr-iPrLys-Ala-Phe-Leu-PyrS2-Phe-2NapA-Gln-NH2]
  Solubility: 10 µM (≈ 19.3 µg/mL)

## CC(=O)N1CCC[C@]12CC=CCCCC1(CCCC=CCCCOC(=O)N3CC[C@@](C(=O)N[C@@H](Cc4ccccc4)C(=O)N[C@@H](Cc4csc5ccccc45)C(=O)N[C@H](C(N)=O)[C@@H](C)O)(C3)NC(=O)[C@H](CC(C)C)NC(=O)[C@H](Cc3ccccc3)NC(=O)[C@H](C)NC(=O)[C@H](C)NC(=O)[C@H]([C@@H](C)O)NC(=O)[C@H](CC(N)=O)NC1=O)NC(=O)[C@H](CC(C)(C)C)NC(=O)[C@H](CC(=O)O)NC2=O (single isomer, unassigned) [I-1300, Ac-PL3-Asp-Npg-B5-Asn-Thr-Ala-Ala-Phe-Leu-PyrS2-Phe-BztA-Thr-NH2]
  Solubility: 10 µM (≈ 18.7 µg/mL)

## CC(=O)N1CCC[C@]12CC=CCCCC1(CCCC=CCCCOC(=O)N3CC[C@@](C(=O)N[C@@H](CCc4ccccc4)C(=O)N[C@@H](Cc4csc5ccccc45)C(=O)N[C@@H](CCC(N)=O)C(N)=O)(C3)NC(=O)[C@H](Cc3ccccc3)NC(=O)[C@H](Cc3ccccc3)NC(=O)[C@H](C)NC(=O)[C@H](C)NC(=O)[C@H](CC(=O)O)NC(=O)[C@H](CC(=O)O)NC1=O)NC(=O)[C@H](CC(C)(C)C)NC(=O)[C@H](CC(=O)O)NC2=O (stereo partly drawn) [I-1351, PL3-Asp-Npg-B5-Asp-Asp-Ala-Ala-Phe-Phe-PyrS2-hPhe-BztA-Gln-NH2]
  solubility at 15 min: 14 µM (≈ 27.4 µg/mL)

## CC(=O)N1CCC[C@]12CC=CCCCC1(CCCC=CCCCOC(=O)N3CC[C@@](C(=O)N[C@@H](Cc4ccccc4)C(=O)N[C@@H](Cc4csc5ccccc45)C(=O)N[C@@H](CCC(N)=O)C(N)=O)(C3)NC(=O)[C@H](CC(C)C)NC(=O)[C@H](Cc3ccccc3)NC(=O)[C@H](C)NC(=O)[C@H](C)NC(=O)[C@H]([C@@H](C)O)NC(=O)[C@H](CC(=O)O)NC1=O)NC(=O)[C@H](C)NC(=O)[C@H](CC(N)=O)NC2=O (single isomer, unassigned) [I-1286, Ac-PL3-Asn-Ala-B5-Asp-Thr-Ala-Ala-Phe-Leu-PyrS2-Phe-BztA-Gln-NH2]
  Solubility: 10 µM (≈ 18.4 µg/mL)

## CC(=O)N1CCC[C@]12CC=CCCCC1(CCCC=CCCCOC(=O)N3CC[C@@](C(=O)N[C@@H](Cc4ccccc4)C(=O)N[C@@H](Cc4csc5ccccc45)C(=O)N[C@@H](CCC(N)=O)C(N)=O)(C3)NC(=O)[C@H](CC(C)C)NC(=O)[C@H](Cc3ccccc3)NC(=O)[C@H](C)NC(=O)[C@H](C)NC(=O)[C@H]([C@@H](C)O)NC(=O)[C@H](CC(=O)O)NC1=O)NC(=O)[C@H](C)NC(=O)[C@H](CC(N)=O)NC2=O (single isomer, unassigned) [I-1287, Ac-PL3-Asn-Ala-B5-Asp-Thr-Ala-Ala-Phe-Leu-PyrS2-Phe-BztA-Gln-NH2]
  Solubility: 10 µM (≈ 18.4 µg/mL)

## CC(=O)N1CCC[C@]12CC=CCCCC1(CCCC=CCCCOC(=O)N3CC[C@@](C(=O)N[C@@H](Cc4ccccc4Cl)C(=O)N[C@@H](Cc4csc5ccccc45)C(=O)N[C@H](CO)[C@@H](C)O)(C3)NC(=O)[C@H](Cc3ccccc3)NC(=O)[C@H](Cc3ccccc3)NC(=O)[C@H](C)NC(=O)[C@H](C)NC(=O)[C@H](Cc3cccc(C(=O)O)c3)NC(=O)[C@H](CC(=O)O)NC1=O)NC(=O)[C@H](CC(C)(C)C)NC(=O)[C@H](CC(=O)O)NC2=O (stereo partly drawn) [I-1340, PL3-Asp-Npg-B5-Asp-3COOHF-Ala-Ala-Phe-Phe-PyrS2-2C1F-BztA-Thro1]
  Solubility: 10 µM (≈ 20.2 µg/mL)

## CC(=O)N1CCC[C@]12CC=CCCCC1(CCCC=CCCCOC(=O)N3CC[C@@](C(=O)N[C@@H](Cc4cccs4)C(=O)N[C@@H](Cc4csc5ccccc45)C(=O)N[C@@H](CCC(N)=O)C(N)=O)(C3)NC(=O)[C@H](Cc3ccccc3)NC(=O)[C@H](Cc3ccccc3)NC(=O)[C@H](C)NC(=O)[C@H](C)NC(=O)[C@H](CC(=O)O)NC(=O)[C@H](CC(=O)O)NC1=O)NC(=O)[C@H](CC(C)(C)C)NC(=O)[C@H](CC(=O)O)NC2=O (stereo partly drawn) [I-1345, PL3-Asp-Npg-B5-Asp-Asp-Ala-Ala-Phe-Phe-PyrS2-2Thi-BztA-Gln-NH2]
  solubility at 15 min: 37 µM (≈ 72.2 µg/mL)

## CC(=O)N1CCC[C@]12CC=CCCCC1(CCCC=CCCCOC(=O)N3CC[C@@](C(=O)N[C@@H](CCc4ccccc4)C(=O)N[C@@H](Cc4csc5ccccc45)C(=O)N[C@@H](CCC(N)=O)C(N)=O)(C3)NC(=O)[C@H](CC(C)C)NC(=O)[C@H](Cc3ccccc3)NC(=O)[C@H](C)NC(=O)[C@H](C)NC(=O)[C@H](CC(=O)O)NC(=O)[C@H](CC(=O)O)NC1=O)NC(=O)[C@H](CC(C)(C)C)NC(=O)[C@H](CC(=O)O)NC2=O (stereo partly drawn) [I-1350, PL3-Asp-Npg-B5-Asp-Asp-Ala-Ala-Phe-Leu-PyrS2-hPhe-BztA-Gln-NH2]
  solubility at 15 min: 28 µM (≈ 53.9 µg/mL)

## CC(=O)N1CCC[C@]12CC=CCCCC1(CCCC=CCCCOC(=O)N3CC[C@@](C(=O)N[C@@H](CC4CCCCC4)C(=O)N[C@@H](Cc4csc5ccccc45)C(=O)N[C@@H](CCC(N)=O)C(N)=O)(C3)NC(=O)[C@H](Cc3ccccc3)NC(=O)[C@H](Cc3ccccc3)NC(=O)[C@H](C)NC(=O)[C@H](C)NC(=O)[C@H](CC(=O)O)NC(=O)[C@H](CC(=O)O)NC1=O)NC(=O)[C@H](CC(C)(C)C)NC(=O)[C@H](CC(=O)O)NC2=O (stereo partly drawn) [I-1331, PL3-Asp-Npg-B5-Asp-Asp-Ala-Ala-Phe-Phe-PyrS2-Cha-BztA-Gln-NH2]
  Solubility: 10 µM (≈ 19.5 µg/mL)

## CC(=O)N1CCC[C@]12CC=CCCCC1(CCCC=CCCCOC(=O)N3CC[C@@](C(=O)N[C@@H](Cc4ccccc4Br)C(=O)N[C@@H](Cc4csc5ccccc45)C(=O)N[C@@H](CCC(N)=O)C(N)=O)(C3)NC(=O)[C@H](Cc3ccccc3)NC(=O)[C@H](Cc3ccccc3)NC(=O)[C@H](C)NC(=O)[C@H](C)NC(=O)[C@H](CC(=O)O)NC(=O)[C@H](CC(=O)O)NC1=O)NC(=O)[C@H](CC(C)(C)C)NC(=O)[C@H](CC(=O)O)NC2=O (stereo partly drawn) [I-1325, PL3-Asp-Npg-B5-Asp-Asp-Ala-Ala-Phe-Phe-PyrS2-2BrF-BztA-Gln-NH2]
  solubility at 15 min: 12 µM (≈ 24.3 µg/mL)

## CC(=O)N1CCC[C@]12CC=CCCCC1(CCCC=CCCCOC(=O)N3CC[C@@](C(=O)N[C@@H](Cc4ccccc4)C(=O)N[C@@H](Cc4cccc5ccccc45)C(=O)N[C@@H](CCC(N)=O)C(N)=O)(C3)NC(=O)[C@H](CC(C)C)NC(=O)[C@H](Cc3ccccc3)NC(=O)[C@H](C)NC(=O)[C@H](C)NC(=O)[C@H]([C@@H](C)O)NC(=O)[C@H](CC(N)=O)NC1=O)NC(=O)[C@H](CC(C)(C)C)NC(=O)[C@H](CC(=O)O)NC2=O (stereo partly drawn) [I-1298, Ac-PL3-Asp-Npg-B5-Asn-Thr-Ala-Ala-Phe-Leu-PyrS2-Phe-1NapA-Gln-NH2]
  Solubility: 10 µM (≈ 18.9 µg/mL)

## CC(=O)N1CCC[C@]12CC=CCCCC1(CCCC=CCCCOC(=O)N3CC[C@@](C(=O)N[C@@H](Cc4ccccc4)C(=O)N[C@@H](Cc4ccc5ccccc5c4)C(=O)N[C@@H](CCC(N)=O)C(N)=O)(C3)NC(=O)[C@H](CC(C)C)NC(=O)[C@H](Cc3ccccc3)NC(=O)[C@H](C)NC(=O)[C@H](C)NC(=O)[C@H]([C@@H](C)O)NC(=O)[C@H](CC(=O)O)NC1=O)NC(=O)[C@H](CC(C)(C)C)NC(=O)[C@H](CC(N)=O)NC2=O (single isomer, unassigned) [I-1291, Ac-PL3-Asn-Npg-B5-Asp-Thr-Ala-Ala-Phe-Leu-PyrS2-Phe-2NapA-Gln-NH2]
  Solubility: 10 µM (≈ 18.9 µg/mL)

## CC(=O)N1CCC[C@]12CC=CCCCC1(CCCC=CCCCOC(=O)N3CC[C@@](C(=O)N[C@@H](Cc4ccccc4)C(=O)N[C@@H](Cc4ccc5ccccc5c4)C(=O)N[C@@H](CCC(N)=O)C(N)=O)(C3)NC(=O)[C@H](CC(C)C)NC(=O)[C@H](Cc3ccccc3)NC(=O)[C@H](C)NC(=O)[C@H](C)NC(=O)[C@H]([C@@H](C)O)NC(=O)[C@H](CC(=O)O)NC1=O)NC(=O)[C@H](CC(C)(C)C)NC(=O)[C@H](CC(N)=O)NC2=O (single isomer, unassigned) [I-1292, Ac-PL3-Asn-Npg-B5-Asp-Thr-Ala-Ala-Phe-Leu-PyrS2-Phe-2NapA-Gln-NH2]
  Solubility: 10 µM (≈ 18.9 µg/mL)

## CC(=O)N1CCC[C@]12CC=CCCCC1(CCCC=CCCCOC(=O)N3CC[C@@](C(=O)N[C@@H](Cc4ccccc4Cl)C(=O)N[C@@H](Cc4csc5ccccc45)C(=O)N[C@H](CO)[C@@H](C)O)(C3)NC(=O)[C@H](CC(C)C)NC(=O)[C@H](Cc3ccccc3)NC(=O)[C@H](C)NC(=O)[C@H](C)NC(=O)[C@H](Cc3cccc(C(=O)O)c3)NC(=O)[C@H](CC(=O)O)NC1=O)NC(=O)[C@H](CC(C)(C)C)NC(=O)[C@H](CC(=O)O)NC2=O (stereo partly drawn) [I-1334, PL3-Asp-Npg-B5-Asp-3COOHF-Ala-Ala-Phe-Leu-PyrS2-2C1F-BztA-Thro1]
  Solubility: 10 µM (≈ 19.8 µg/mL)
